Results reported in ChEMBL document CHEMBL5055616, “Discovery of Acyl-sulfonamide Nav1.7 Inhibitors GDC-0276 and GDC-0310” (J Med Chem, 2021).
≈ marks a conversion by molar mass, not a printed value. One block for each compound: values may come before it.

Legend:
[1] = Metabolic stability in human hepatocytes assessed as intrinsic clearance at 1 uM measured upto 3 hrs by LC-MS/MS analysis; type: ADME, cell-based, Hepatocyte; settings: read-out: CLH
[2] = molecular target: Sodium channel protein type 5 subunit alpha (Homo sapiens, UniProt Q14524); assay: Inhibition of human Nav1.5 expressed in HEK293 cells incubated for 1 hr in presence of veratridine and anthropleurin-C by sodium influx assay; type: cell-based
Sodium channel protein type 5 subunit alpha, sequence (Q14524 whole entry): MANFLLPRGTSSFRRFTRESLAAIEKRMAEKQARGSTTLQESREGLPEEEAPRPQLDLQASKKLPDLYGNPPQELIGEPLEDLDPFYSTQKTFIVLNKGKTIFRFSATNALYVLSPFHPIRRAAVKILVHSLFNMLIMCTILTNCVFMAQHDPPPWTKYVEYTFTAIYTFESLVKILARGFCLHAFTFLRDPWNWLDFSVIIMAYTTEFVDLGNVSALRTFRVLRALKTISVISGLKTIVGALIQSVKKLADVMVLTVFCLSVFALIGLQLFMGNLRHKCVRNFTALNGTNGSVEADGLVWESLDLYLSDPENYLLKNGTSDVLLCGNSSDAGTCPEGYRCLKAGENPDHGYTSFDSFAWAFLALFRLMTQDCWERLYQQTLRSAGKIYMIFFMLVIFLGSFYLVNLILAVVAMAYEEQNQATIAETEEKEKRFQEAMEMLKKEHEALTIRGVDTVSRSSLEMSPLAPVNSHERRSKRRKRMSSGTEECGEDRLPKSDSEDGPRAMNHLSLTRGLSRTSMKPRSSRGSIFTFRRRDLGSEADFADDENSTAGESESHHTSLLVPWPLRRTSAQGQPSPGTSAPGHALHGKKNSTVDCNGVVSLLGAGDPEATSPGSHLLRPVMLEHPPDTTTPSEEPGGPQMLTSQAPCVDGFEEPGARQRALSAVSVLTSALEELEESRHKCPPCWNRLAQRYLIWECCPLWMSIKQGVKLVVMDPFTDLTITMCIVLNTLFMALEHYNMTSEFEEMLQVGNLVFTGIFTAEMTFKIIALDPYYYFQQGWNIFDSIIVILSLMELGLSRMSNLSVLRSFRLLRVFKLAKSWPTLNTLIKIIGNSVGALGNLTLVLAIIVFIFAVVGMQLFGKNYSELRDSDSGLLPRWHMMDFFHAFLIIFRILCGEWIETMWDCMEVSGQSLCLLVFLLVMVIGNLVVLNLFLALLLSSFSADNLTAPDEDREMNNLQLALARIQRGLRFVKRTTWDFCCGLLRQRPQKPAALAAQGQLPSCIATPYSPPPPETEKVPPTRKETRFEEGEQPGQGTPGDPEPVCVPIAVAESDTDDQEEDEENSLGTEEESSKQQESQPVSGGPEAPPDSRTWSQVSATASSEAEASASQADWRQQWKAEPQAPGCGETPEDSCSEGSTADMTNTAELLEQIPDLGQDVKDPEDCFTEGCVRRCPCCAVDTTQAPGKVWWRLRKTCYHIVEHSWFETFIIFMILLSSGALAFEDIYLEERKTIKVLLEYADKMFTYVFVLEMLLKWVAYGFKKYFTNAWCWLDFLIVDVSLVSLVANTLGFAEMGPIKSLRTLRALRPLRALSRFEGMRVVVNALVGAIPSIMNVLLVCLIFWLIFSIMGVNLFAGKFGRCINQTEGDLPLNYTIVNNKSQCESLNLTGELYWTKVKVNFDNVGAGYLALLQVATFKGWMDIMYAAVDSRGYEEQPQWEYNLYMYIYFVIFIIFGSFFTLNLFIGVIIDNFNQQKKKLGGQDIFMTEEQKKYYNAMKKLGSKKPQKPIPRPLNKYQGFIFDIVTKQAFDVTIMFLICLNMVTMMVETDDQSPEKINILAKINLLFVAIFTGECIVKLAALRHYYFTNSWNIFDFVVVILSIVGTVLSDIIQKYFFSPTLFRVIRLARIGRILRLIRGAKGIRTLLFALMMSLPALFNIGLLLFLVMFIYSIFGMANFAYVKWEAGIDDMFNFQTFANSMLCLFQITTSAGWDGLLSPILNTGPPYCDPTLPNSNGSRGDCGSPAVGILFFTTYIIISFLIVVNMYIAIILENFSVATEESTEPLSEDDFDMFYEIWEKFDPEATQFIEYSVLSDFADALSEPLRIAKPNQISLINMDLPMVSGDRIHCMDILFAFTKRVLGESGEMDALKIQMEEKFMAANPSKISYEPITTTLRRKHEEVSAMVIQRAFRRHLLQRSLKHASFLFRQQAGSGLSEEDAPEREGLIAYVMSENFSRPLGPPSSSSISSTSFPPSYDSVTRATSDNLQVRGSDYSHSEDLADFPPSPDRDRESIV

[3] = species: Homo sapiens; assay: Selectivity index, ratio of IC50 for human Nav1.5 expressed in HEK293 cells to IC50 for human Nav1.7 expressed in HEK293 cells; type: cell-based
[4] = Lipophilicity, logD of the compound at pH 7.4 by shake flask assay based LC-MS/MS analysis; type: physicochemical; settings: buffer
[5] = Metabolic stability in human liver microsomes assessed as intrinsic clearance at 1 uM measured upto 60 mins in presence of NADPH by LC-MS/MS analysis; type: ADME, Microsome; settings: read-out: CLH
[6] = Volume of distribution at steady state in Beagle dog at 1 mg/kg, po or 0.5 mg/kg, iv measured upto 24 hrs by LC-MS/MS analysis; type: ADME, organism-based, Canis lupus familiaris; settings: in vivo
[7] = Plasma protein binding in human assessed as unbound fraction at 5 uM after 6 hrs by LC-MS/MS analysis based equilibrium dialysis method; type: ADME, cell-free
[8] = Kinetic solubility of compound in PBS at pH 7.4; type: physicochemical; settings: read-out: Kinetic_solubility
[9] = molecular target: Sodium channel protein type 2 subunit alpha (Homo sapiens, UniProt Q99250); assay: Inhibition of full length human Nav1.2 expressed in HEK cells by whole cell voltage clamp analysis; type: cell-based
Sodium channel protein type 2 subunit alpha, sequence (Q99250 whole entry): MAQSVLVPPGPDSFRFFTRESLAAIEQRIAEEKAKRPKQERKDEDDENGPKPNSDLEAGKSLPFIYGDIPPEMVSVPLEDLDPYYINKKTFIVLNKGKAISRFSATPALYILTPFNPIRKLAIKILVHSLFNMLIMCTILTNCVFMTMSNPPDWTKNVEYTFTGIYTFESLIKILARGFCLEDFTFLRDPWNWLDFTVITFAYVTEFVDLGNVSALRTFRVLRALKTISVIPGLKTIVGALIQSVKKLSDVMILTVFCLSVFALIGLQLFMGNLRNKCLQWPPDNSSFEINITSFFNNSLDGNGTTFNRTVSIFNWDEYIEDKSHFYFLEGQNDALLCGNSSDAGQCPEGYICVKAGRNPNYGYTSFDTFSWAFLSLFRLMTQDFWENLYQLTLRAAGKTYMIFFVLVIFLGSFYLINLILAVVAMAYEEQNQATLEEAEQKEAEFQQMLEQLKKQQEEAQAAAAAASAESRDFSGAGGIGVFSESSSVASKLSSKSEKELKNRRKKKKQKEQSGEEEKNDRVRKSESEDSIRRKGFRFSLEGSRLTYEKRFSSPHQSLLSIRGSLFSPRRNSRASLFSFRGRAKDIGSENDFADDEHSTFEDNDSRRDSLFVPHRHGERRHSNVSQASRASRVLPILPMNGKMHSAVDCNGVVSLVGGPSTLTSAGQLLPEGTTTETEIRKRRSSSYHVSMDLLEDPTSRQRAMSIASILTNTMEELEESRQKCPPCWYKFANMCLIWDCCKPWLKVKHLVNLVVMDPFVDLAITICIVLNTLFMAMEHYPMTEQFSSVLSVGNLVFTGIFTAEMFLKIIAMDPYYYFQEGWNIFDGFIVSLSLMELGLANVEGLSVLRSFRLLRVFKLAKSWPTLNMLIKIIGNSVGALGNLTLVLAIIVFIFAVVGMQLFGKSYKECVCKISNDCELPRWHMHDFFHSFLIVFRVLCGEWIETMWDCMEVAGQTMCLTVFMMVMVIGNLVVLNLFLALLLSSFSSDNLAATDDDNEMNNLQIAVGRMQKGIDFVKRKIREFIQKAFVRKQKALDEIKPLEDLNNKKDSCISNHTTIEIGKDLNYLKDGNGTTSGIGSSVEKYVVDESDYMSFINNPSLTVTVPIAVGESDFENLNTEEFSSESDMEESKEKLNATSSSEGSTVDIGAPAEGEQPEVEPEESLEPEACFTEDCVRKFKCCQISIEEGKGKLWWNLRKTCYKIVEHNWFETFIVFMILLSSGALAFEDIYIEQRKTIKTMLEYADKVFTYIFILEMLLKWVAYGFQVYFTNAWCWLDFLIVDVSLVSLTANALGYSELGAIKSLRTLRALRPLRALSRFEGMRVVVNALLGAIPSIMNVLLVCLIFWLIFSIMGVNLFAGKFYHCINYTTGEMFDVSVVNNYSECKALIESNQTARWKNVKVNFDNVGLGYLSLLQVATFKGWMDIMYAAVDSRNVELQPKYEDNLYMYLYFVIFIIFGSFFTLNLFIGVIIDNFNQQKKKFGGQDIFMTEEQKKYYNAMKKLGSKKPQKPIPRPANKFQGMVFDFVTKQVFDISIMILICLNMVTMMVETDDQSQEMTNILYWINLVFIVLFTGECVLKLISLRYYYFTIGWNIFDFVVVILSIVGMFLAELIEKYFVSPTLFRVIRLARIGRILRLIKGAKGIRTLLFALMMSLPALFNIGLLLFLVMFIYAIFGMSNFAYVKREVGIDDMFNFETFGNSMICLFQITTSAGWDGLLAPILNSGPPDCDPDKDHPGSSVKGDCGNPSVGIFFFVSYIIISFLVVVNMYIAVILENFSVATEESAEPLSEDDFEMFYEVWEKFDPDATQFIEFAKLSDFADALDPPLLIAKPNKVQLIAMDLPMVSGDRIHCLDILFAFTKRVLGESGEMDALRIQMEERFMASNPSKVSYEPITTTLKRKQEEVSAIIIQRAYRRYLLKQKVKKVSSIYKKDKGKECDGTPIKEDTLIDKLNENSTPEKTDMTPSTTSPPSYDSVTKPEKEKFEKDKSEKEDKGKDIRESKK

[10] = Apparent permeability across apical to basolateral side in MDCK cells by transwell assay; type: ADME, cell-based, Canis lupus familiaris; settings: dog
[11] = Volume of distribution at steady state in Sprague-Dawley rat at 5 mg/kg, po or 1 mg/kg, iv measured upto 8 hrs by LC-MS/MS analysis; type: ADME, organism-based; settings: in vivo
[12] = molecular target: Cytochrome P450 3A4 (Homo sapiens, UniProt P08684); assay: Inhibition of CYP3A4 (unknown origin); type: ADME
Cytochrome P450 3A4, sequence (P08684 whole entry): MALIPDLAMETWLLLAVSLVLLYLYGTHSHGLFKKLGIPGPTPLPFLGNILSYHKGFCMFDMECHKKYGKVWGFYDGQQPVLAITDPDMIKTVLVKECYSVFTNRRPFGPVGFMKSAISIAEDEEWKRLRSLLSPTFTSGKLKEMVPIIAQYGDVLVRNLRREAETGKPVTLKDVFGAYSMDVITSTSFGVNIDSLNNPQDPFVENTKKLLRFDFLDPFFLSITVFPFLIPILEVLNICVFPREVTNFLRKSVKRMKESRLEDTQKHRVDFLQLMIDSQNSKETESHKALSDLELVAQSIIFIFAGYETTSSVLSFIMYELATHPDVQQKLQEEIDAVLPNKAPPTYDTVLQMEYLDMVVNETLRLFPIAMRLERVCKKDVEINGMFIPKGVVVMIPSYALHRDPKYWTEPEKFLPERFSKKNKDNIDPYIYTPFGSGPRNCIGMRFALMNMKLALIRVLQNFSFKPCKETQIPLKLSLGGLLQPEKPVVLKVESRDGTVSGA

[13] = Volume of distribution at steady state in cynomolgus monkey at 2 mg/kg, po or 1 mg/kg, iv measured upto 24 hrs by LC-MS/MS analysis; type: ADME, organism-based, Macaca fascicularis; settings: in vivo
[14] = Half life in cynomolgus monkey at 2 mg/kg, po or 1 mg/kg, iv measured upto 24 hrs by LC-MS/MS analysis; type: ADME, organism-based, Macaca fascicularis; settings: in vivo
[15] = Half life in Beagle dog at 1 mg/kg, po or 0.5 mg/kg, iv measured upto 24 hrs by LC-MS/MS analysis; type: ADME, organism-based, Canis lupus familiaris; settings: in vivo
[16] = molecular target: Sodium channel protein type 8 subunit alpha (Homo sapiens, UniProt Q9UQD0); assay: Inhibition of human Nav1.6 expressed in CHO cells by whole cell voltage clamp analysis; type: cell-based
[17] = Oral bioavailability in Beagle dog at 1 mg/kg measured upto 24 hrs by LC-MS/MS analysis; type: ADME, organism-based, Canis lupus familiaris; settings: in vivo
[18] = molecular target: Sodium channel protein type 1 subunit alpha (Homo sapiens, UniProt P35498); assay: Inhibition of full length human Nav1.1 expressed in HEK cells by whole cell voltage clamp analysis; type: cell-based
[19] = Half life in Sprague-Dawley rat at 5 mg/kg, po or 1 mg/kg, iv measured upto 8 hrs by LC-MS/MS analysis; type: ADME, organism-based; settings: in vivo
[20] = Oral bioavailability in Sprague-Dawley rat at 5 mg/kg measured upto 8 hrs by LC-MS/MS analysis; type: ADME, organism-based; settings: in vivo
[21] = Plasma protein binding in Sprague-Dawley rat assessed as unbound fraction at 5 uM after 6 hrs by LC-MS/MS analysis based equilibrium dialysis method; type: ADME, cell-free
[22] = Oral bioavailability in cynomolgus monkey at 2 mg/kg measured upto 24 hrs by LC-MS/MS analysis; type: ADME, organism-based, Macaca fascicularis; settings: in vivo
[23] = Plasma protein binding in cynomolgus monkey assessed as unbound fraction at 5 uM after 6 hrs by LC-MS/MS analysis based equilibrium dialysis method; type: ADME, cell-free, Macaca fascicularis
[24] = Plasma protein binding in Beagle dog assessed as unbound fraction at 5 uM after 6 hrs by LC-MS/MS analysis based equilibrium dialysis method; type: ADME, cell-free, Canis lupus familiaris
[25] = test system: Mus musculus; assay: Antinociceptive activity in po dosed FVB hNav1.7 transgenic mouse model of inherited erythromelalgia harboring I848T mutation assessed as reduction in number of nociceptive aconitine injected after compound administration; type: functional, organism-based; settings: for EC50: Mus musculus; for fEC50: route po
[26] = molecular target: Sodium channel protein type 4 subunit alpha (Homo sapiens, UniProt P35499); assay: Inhibition of full length human Nav1.4 expressed in HEK cells by whole cell voltage clamp analysis; type: cell-based

CLint scaled at 1 µM [1]: 7.5 mL/min/kg
logD [4]: 0.9
CLint scaled at 1 µM [5]: 8.6 mL/min/kg
SMILES: CS(=O)(=O)NC(=O)c1cc(C2CC2)c(OCC2CCN(C(=O)c3cc(Cl)cc(Cl)c3)CC2)cc1F
IC50 [2]: 6400 nM
Ratio IC50 [3]: 183

CLint scaled at 1 µM [1]: 15 mL/min/kg
CLint scaled at 1 µM [5]: 9.9 mL/min/kg
SMILES: CS(=O)(=O)NC(=O)c1cc(C2CC2)c(OCC2CCN(Cc3ccc(Cl)cc3)CC2)cc1F
IC50 [2]: 27000 nM
Ratio IC50 [3]: 667

CLint scaled at 1 µM [1]: < 6.2 mL/min/kg
logD [4]: 4.4
CLint scaled at 1 µM [5]: 8.5 mL/min/kg
SMILES: O=C(NS(=O)(=O)N1CCCC1)c1cc(C2CC2)c(OCC23CC4CC(CC(C4)C2)C3)cc1F
IC50 [2]: 1500 nM
Ratio IC50 [3]: 9

CLint scaled at 1 µM [1]: 15 mL/min/kg
logD [4]: 0.3
CLint scaled at 1 µM [5]: 4.8 mL/min/kg
SMILES: CS(=O)(=O)NC(=O)c1cc(C2CC2)c(OCC2CCN(Cc3ccccc3)CC2)cc1F
IC50 [2]: > 30000 nM
Ratio IC50 [3]: > 9.1

logD [4]: 1.2
CLint scaled at 1 µM [5]: 9.9 mL/min/kg
SMILES: CS(=O)(=O)NC(=O)c1cc(C2CC2)c(OCC2CCN(Cc3ccc(OC(F)(F)F)cc3)CC2)cc1F
IC50 [2]: 17000 nM
Ratio IC50 [3]: 531

CLint scaled at 1 µM [1]: 12 mL/min/kg
logD [4]: 3.8
CLint scaled at 1 µM [5]: 11 mL/min/kg
SMILES: O=C(NS(=O)(=O)N1CCOCC1)c1cc(C2CC2)c(OCC23CC4CC(CC(C4)C2)C3)cc1F
IC50 [2]: 110 nM
Ratio IC50 [3]: 1

Second part, the compound before the results:

SMILES: CS(=O)(=O)NC(=O)c1cc(C2CC2)c(OCC2CCN(Cc3cc(Cl)cc(Cl)c3)CC2)cc1F
CLint scaled at 1 µM [1]: 15 mL/min/kg
IC50 [2]: 7000 nM
Ratio IC50 [3]: 58
logD [4]: 2
CLint scaled at 1 µM [5]: 9.7 mL/min/kg

SMILES: C[C@@H](c1cc(Cl)cc(Cl)c1)N1CCC(COc2cc(F)c(C(=O)NS(C)(=O)=O)cc2C2CC2)CC1
Vdss [6]: 0.33 L/kg
CLint scaled at 1 µM [1]: < 6.2 mL/min/kg
Fu [7]: 0.196%
IC50 [2]: 1500 nM
solubility kinetic [8]: 52 µM (≈ 28.3 µg/mL)
IC50 [9]: 38 nM
Papp A→B [10]: 11 ×10⁻⁶ cm/s
Vdss [11]: 0.6 L/kg
IC50 [12]: > 10000 nM
Vdss [13]: 0.29 L/kg
half-life [14]: 4.4 h
half-life [15]: 46 h
IC50 [16]: 198 nM
bioavailability [17]: 100%
IC50 [18]: 202 nM
logD [4]: 2.3
half-life [19]: 5 h
bioavailability [20]: 68%
Fu [21]: 0.278%
bioavailability [22]: 82%
CLint scaled at 1 µM [5]: 9.6 mL/min/kg
Fu [23]: 0.129%
Fu [24]: 0.157%
EC50 [25]: 1100 nM
fEC50 [25]: 3.5 nM

SMILES: O=C(NS(=O)(=O)C1COC1)c1cc(C2CC2)c(OCC23CC4CC(CC(C4)C2)C3)cc1F
CLint scaled at 1 µM [1]: 6.7 mL/min/kg
IC50 [2]: 750 nM
Ratio IC50 [3]: 20
logD [4]: 3.4
CLint scaled at 1 µM [5]: 16 mL/min/kg

SMILES: O=C(NS(=O)(=O)N1CCC1)c1cc(C2CC2)c(OCC23CC4CC(CC(C4)C2)C3)cc1F
Vdss [6]: 0.17 L/kg
CLint scaled at 1 µM [1]: 11 mL/min/kg
Fu [7]: 0.025%
IC50 [2]: 870 nM
solubility kinetic [8]: 5.3 µM (≈ 2.45 µg/mL)
IC50 [9]: 18.9 nM
Papp A→B [10]: 4.7 ×10⁻⁶ cm/s
Vdss [11]: 0.38 L/kg
IC50 [12]: > 10000 nM
Vdss [13]: 0.3 L/kg
half-life [14]: 1.6 h
half-life [15]: 5.5 h
IC50 [26]: 8.5 nM
bioavailability [17]: 50%
logD [4]: 3.1
half-life [19]: 0.95 h
bioavailability [20]: 34%
Fu [21]: 0.013%
bioavailability [22]: 30%
CLint scaled at 1 µM [5]: 10 mL/min/kg
Fu [23]: 0.025%
Fu [24]: 0.005%
EC50 [25]: 1700 nM
fEC50 [25]: 0.42 nM

SMILES: CS(=O)(=O)NC(=O)c1cc(C2CC2)c(OCC2CN(Cc3ccccc3)C2)cc1F
IC50 [2]: > 30000 nM
logD [4]: 0.1

SMILES: CS(=O)(=O)NC(=O)c1cc(C2CC2)c(OCC2CCN(C(c3ccccc3)c3ccccc3)CC2)cc1F
CLint scaled at 1 µM [1]: < 6.2 mL/min/kg
IC50 [2]: 590 nM
Ratio IC50 [3]: 8.9
logD [4]: 2.7
CLint scaled at 1 µM [5]: 5.5 mL/min/kg

SMILES: O=C(NS(=O)(=O)C1CC1)c1cc(C2CC2)c(OCC23CC4CC(CC(C4)C2)C3)cc1F
CLint scaled at 1 µM [1]: 16 mL/min/kg
IC50 [2]: 260 nM
Ratio IC50 [3]: 19
logD [4]: 3.2
CLint scaled at 1 µM [5]: 18 mL/min/kg

SMILES: CC(C)(c1cc(Cl)cc(Cl)c1)N1CCC(COc2cc(F)c(C(=O)NS(C)(=O)=O)cc2C2CC2)CC1
CLint scaled at 1 µM [1]: < 6.2 mL/min/kg
IC50 [2]: 3900 nM
Ratio IC50 [3]: 144
logD [4]: 3.9
CLint scaled at 1 µM [5]: 7.8 mL/min/kg

SMILES: CS(=O)(=O)NC(=O)c1cc(C2CC2)c(OCC23CC4CC(CC(C4)C2)C3)cc1F
CLint scaled at 1 µM [1]: 17 mL/min/kg
IC50 [2]: 1100 nM
logD [4]: 3.3
CLint scaled at 1 µM [5]: 19 mL/min/kg

SMILES: CS(=O)(=O)NC(=O)c1cc(C2CC2)c(OCC2CN(C(c3ccccc3)c3ccccc3)C2)cc1F
CLint scaled at 1 µM [1]: 15 mL/min/kg
IC50 [2]: 1100 nM
Ratio IC50 [3]: 48
logD [4]: 1.8
CLint scaled at 1 µM [5]: 6.7 mL/min/kg

SMILES: C[C@H](c1cc(Cl)cc(Cl)c1)N1CCC(COc2cc(F)c(C(=O)NS(C)(=O)=O)cc2C2CC2)CC1
CLint scaled at 1 µM [1]: 16 mL/min/kg
logD [4]: 2.2
CLint scaled at 1 µM [5]: 17 mL/min/kg
